Laboratory results published in patent US20150031102A1, “METHODS AND COMPOSITIONS FOR ENHANCED PRODUCTION OF BUTANOL BY CLOSTRIDIA” (Butrolix LLC, priority 2012, published 2015).

System: C. acetobutylicum
Assay: Continuous culture, 2.5 L, dilution rate 0.01 per hour, 20 days (butanol, residual glucose, optical density, pH, yield, productivity)
Format: cell-based, Clostridium acetobutylicum
Details: for Productivity / Yield / Butanol: 50 nM peptide, Table 54; for Butanol: average ± SD of triplicate samples
Description: Lastly, 2.5 L continuous culture studies were conducted using the optimum peptide treatment level that was determined by the sequential batch transfer experiments. An untreated and a peptide-treated culture were grown in parallel, identical vessels with identical dilution rates for 20 days. The continuous cultures were initiated by inoculating 2.25 L of sterile medium in each culture vessel using 250 mL of peptide-treated and untreated batch cultures that had been grown for 24 hours. The batch cultures used as inoculum were the third of sequential batch transfer cultures, which made inoculation of the continuous cultures the fourth sequential transfer. After inoculation, the continuous cultures were grown for 24 hours before beginning to feed fresh medium at a rate of 0.01 volumes per hour. Triplicate samples were taken from each continuous culture every 24 hours. Optical density of the replicates was measured and culture supernatants were recovered following centrifugation and analyzed later for butanol and residual glucose concentrations. The analyses were used to calculate yield and productivity of the cultures.
Clostridium acetobutylicum strain ATCC 824 was used in all experiments and the growth medium used for sequential batch transfer, time course, and continuous culture experiments contained yeast extract, casamino acids, L-cysteine, L-asparagine, phosphate buffer, trace minerals, and 6% glucose. What are believed to be quorum-sensing peptides that were used in the experiments were chemically synthesized peptides SEQ ID NO: 143 (amino acid sequence: SYPGWSW) and SEQ ID NO: 144 (amino acid sequence: ILILISG). Routine growth of the bacteria as well as the sequential batch and time course experiments were conducted in a Form a Scientific Model 1029 anaerobic gas chamber at 32° C. Continuous cultures were performed at 32° C. using duplicate New Brunswick Scientific BioFlo 3000 apparati with a dilution rate of 0.01 volume per hour, 75 rpm agitation, and nitrogen gas sparging. Optical density of culture samples was measured at 600 nm in a Beckman DU 600 series spectrophotometer and glucose was analyzed using a YSI Model 2700 Select Biochemistry Analyzer with internal glucose calibration. Butanol concentrations were determined by measuring experimental and standard samples using a Varian Saturn 3 Gas Chromatograph/Mass Spectrometer and calculating butanol concentrations using standard curves.
Data from continuous cultures using a 6% glucose medium in vessels with a working volume of 2.5 L run at a dilution rate of 0.01 per hour. Two vessels were run in parallel, one of which was treated with 50 nM of peptide SEQ ID NO: 143 and the other was untreated. The vessels were sparged continuously with nitrogen gas to maintain anaerobic conditions and were agitated at 75 rpm. On Day 0, the vessels were inoculated with a 1/10 volume (250 mL) of overnight cultures that were either treated with peptide or untreated, and that were the third transfer of the cultures, which made inoculation of the continuous cultures the fourth transfer. Triplicate samples were collected aseptically from each vessel immediately after inoculation and every 24 hours thereafter. The cultures were allowed to grow for 24 hours prior to beginning to feed fresh medium, and were maintained for 20 days each, without pH control. The optical density of each sample was measured immediately at 600 nm, the samples were centrifuged to remove cells, and the cell-free supernatants were frozen for later analysis. A representative experiment is shown in FIG. 19 and Tables 34 and 35.
Using the optimum peptide treatment level that was determined by the sequential batch transfer experiments, 2.5 L continuous culture studies were conducted. An untreated and a peptide-treated culture were grown in parallel, identical vessels using the same dilution rates for 20 days for each of the peptides BP110517 and BP1106213. […]

[1] = 24 hour period preceding day 10
[2] = 24 hour period preceding day 11
[3] = 24 hour period preceding day 12
[4] = 24 hour period preceding day 13
[5] = 24 hour period preceding day 14
[6] = 24 hour period preceding day 15
[7] = 24 hour period preceding day 16
[8] = 24 hour period preceding day 17
[9] = 24 hour period preceding day 18
[10] = 24 hour period preceding day 19
[11] = 24 hour period preceding day 20

Substance: ILILISG (Derived from Clostridium acetobutylicum SEQ ID NO: 110) [peptide SEQ ID NO: 144]
- Butanol content compared with the untreated culture (50 nM BP1106213, starting at day 2 and throughout the rest of the study): untreated culture remained significantly higher
- pH (50 nM BP1106213 and its untreated control, after the first 4 days, for the duration of both cultures): ~4.2
- Optical density (600 nm) (50 nM BP1106213 and its untreated control, almost the complete duration of the cultures): above 2.0
- Glucose consumption (50 nM BP1106213 and untreated, day three through the end of the study): entirely consumed
- Productivity (24 hour period preceding day 1): 0.53 g Butanol/L-h
- Yield (24 hour period preceding day 1): 0.19 g Butanol/g Glucose
- Productivity (24 hour period preceding day 2): −0.17 g Butanol/L-h
- Yield (24 hour period preceding day 2): −0.28 g Butanol/g Glucose
- Productivity (24 hour period preceding day 3): 0.07 g Butanol/L-h
- Yield (24 hour period preceding day 3): 0.11 g Butanol/g Glucose
- Productivity (24 hour period preceding day 4): 0.29 g Butanol/L-h
- Yield (24 hour period preceding day 4): 0.46 g Butanol/g Glucose
- Productivity (24 hour period preceding day 5): 0.24 g Butanol/L-h
- Yield (24 hour period preceding day 5): 0.39 g Butanol/g Glucose
- Productivity (24 hour period preceding day 6): 0.07 g Butanol/L-h
- Yield (24 hour period preceding day 6): 0.11 g Butanol/g Glucose
- Productivity (24 hour period preceding day 7): 0.14 g Butanol/L-h
- Yield (24 hour period preceding day 7): 0.23 g Butanol/g Glucose
- Productivity (24 hour period preceding day 8): 0.06 g Butanol/L-h
- Yield (24 hour period preceding day 8): 0.10 g Butanol/g Glucose
- Productivity (24 hour period preceding day 9): 0.07 g Butanol/L-h
- Yield (24 hour period preceding day 9): 0.11 g Butanol/g Glucose
- Productivity [1]: 0.00 g Butanol/L-h
- Yield [1]: 0.01 g Butanol/g Glucose
- Productivity [2]: 0.20 g Butanol/L-h
- Yield [2]: 0.33 g Butanol/g Glucose
- Productivity [3]: 0.02 g Butanol/L-h
- Yield [3]: 0.04 g Butanol/g Glucose
- Productivity [4]: −0.11 g Butanol/L-h
- Yield [4]: −0.18 g Butanol/g Glucose
- Productivity [5]: 0.00 g Butanol/L-h
- Yield [5]: 0.00 g Butanol/g Glucose
- Productivity [6]: 0.03 g Butanol/L-h
- Yield [6]: 0.05 g Butanol/g Glucose
- Productivity [7]: 0.11 g Butanol/L-h
- Yield [7]: 0.17 g Butanol/g Glucose
- Productivity [8]: −0.01 g Butanol/L-h
- Yield [8]: −0.02 g Butanol/g Glucose
- Productivity [9]: 0.01 g Butanol/L-h
- Yield [9]: 0.01 g Butanol/g Glucose
- Productivity [10]: 0.06 g Butanol/L-h
- Yield [10]: 0.09 g Butanol/g Glucose
- Productivity [11]: 0.01 g Butanol/L-h
- Yield [11]: 0.01 g Butanol/g Glucose
- Butanol (day 0): 0.6 ± 0.0 g/L
- Butanol (day 1): 7.0 ± 0.5 g/L
- Butanol (day 2): 8.2 ± 0.9 g/L
- Butanol (day 3): 6.9 ± 0.6 g/L
- Butanol (day 4): 5.0 ± 0.2 g/L
- Butanol (day 5): 4.6 ± 0.3 g/L
- Butanol (day 6): 5.2 ± 0.2 g/L
- Butanol (day 7): 4.9 ± 0.2 g/L
- Butanol (day 8): 5.6 ± 0.0 g/L
- Butanol (day 9): 5.1 ± 0.1 g/L
- Butanol (day 10): 5.1 ± 0.0 g/L
- Butanol (day 11): 5.2 ± 0.2 g/L
- Butanol (day 12): 5.1 ± 0.1 g/L
- Butanol (day 13): 5.0 ± 0.1 g/L
- Butanol (day 14): 5.4 ± 0.1 g/L
- Butanol (day 15): 5.5 ± 0.1 g/L
- Butanol (day 16): 5.5 ± 0.1 g/L
- Butanol (day 17): 5.3 ± 0.1 g/L
- Butanol (day 18): 5.1 ± 0.2 g/L
- Butanol (day 19): 4.3 ± 0.2 g/L
- Butanol (day 20): 2.9 ± 0.1 g/L
- Effect on differentiation and butanol production (continuous cultures): strong inhibitor of differentiation and butanol production
